The values that follow are results of earlier work, collected in paper PMC4177305 (ChemMedChem, 2014).

Each structure is given as a SMILES string. pKd: −log10 of the molar value.

The conditions of data set [1]: in humans.
The target in the next data set is human serum albumin (Homo sapiens, UniProt P02768). The settings on record: reported affinity of MS-325 to human serum albumin.
For data set [2], the system named is human serum albumin (HSA). The settings on record: displaces site II ligands rather than site I ligands.

human serum albumin, sequence (P02768 25-609): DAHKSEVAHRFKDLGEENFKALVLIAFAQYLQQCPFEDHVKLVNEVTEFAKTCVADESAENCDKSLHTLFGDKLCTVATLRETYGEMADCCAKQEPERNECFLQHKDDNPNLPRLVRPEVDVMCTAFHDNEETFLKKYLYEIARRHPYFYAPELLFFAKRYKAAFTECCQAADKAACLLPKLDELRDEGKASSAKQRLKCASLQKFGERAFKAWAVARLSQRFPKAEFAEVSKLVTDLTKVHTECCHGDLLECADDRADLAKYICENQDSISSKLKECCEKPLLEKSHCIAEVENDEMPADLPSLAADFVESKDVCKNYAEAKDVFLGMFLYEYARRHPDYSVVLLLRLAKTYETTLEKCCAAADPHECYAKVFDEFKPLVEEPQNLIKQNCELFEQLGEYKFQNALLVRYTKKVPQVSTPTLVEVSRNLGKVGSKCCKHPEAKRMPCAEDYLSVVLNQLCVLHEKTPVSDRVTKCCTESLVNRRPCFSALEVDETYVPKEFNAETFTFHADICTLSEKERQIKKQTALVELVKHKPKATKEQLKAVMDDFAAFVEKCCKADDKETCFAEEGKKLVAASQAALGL

Broadly, the pKd is the negative decadic logarithm of the Kd, by convention in mol/L. Take `O=C([O-])CN(CCN(CC(=O)[O-])CC(COP(=O)([O-])OC1CCC(c2ccccc2)(c2ccccc2)CC1)N(CC(=O)[O-])CC(=O)[O-])CC(=O)[O-].[Gd+3].[Na+].[Na+].[Na+]` (stereo not drawn) [MS-325, gadofosveset trisodium]: the intravascular half-life in data set [1] was 18.5 ± 3 h. Moreover, the pKd at human serum albumin was 3.79. The albumin binding site result in data set [2] was “binds primarily to site II”.
